Data on 27 compounds can be found in patent US6827926B2, “Metallotetrapyrrolic photosensitizing agents for use in photodynamic therapy” (Miravant Pharmaceuticals, Inc., priority 2001, dated 2004).

The experiment concerns V79 (Chinese Hamster Lung Fibroblasts) cells. Kind of experiment: In vitro cytotoxicity assay (light EC50, Alamar blue). Format: cell-based. Here is the method:
The in vitro biological evaluation of photosensitizers for their ability to photosensitize cells was performed using standard procedures. Using 5% FBS/DMEM phenol-free media, wells (180 μl/well) were plated with 5×10^4 V79 (Chinese Hamster Lung Fibroblasts) cells/ml into two 96 well plates. Plate 1 was light-treated and plate 2 served as a control. The plates were Incubated at 37° C., 5% CO2 for 3-5 hours. Standard solutions of the photosensitizers were dissolved in pre-filtered Dimethyl Sulfoxide (DMSO). Drug was diluted in 5% FBS DMEM phenol free medium. Final drug concentrations for light and dark experiments were 0.01, 0.1, 1.0, 3.0 and 5.0 μM. Twenty microliters of each concentration were added to six replicate wells to the light and dark plate. The plates were wrapped in aluminum foil to avoid photoactivation and mixed in a gyratory shaker for approximately 2 minutes. Both plates were incubated for 24 hours at 37° C., 5% CO2. After a 24 hour incubation, drug-containing media was aspirated from the plates. Each well was rinsed with 180 μl Hepes buffer salt solution (HBSS) then aspirated to remove the HBSS. 180 μl of fresh media were added (5% FBS/DMEM phenol-free) to each well. […] Plate 2 was not light treated. Immediately after light treatment, 20 μl Alamar blue was added to each well in plate 1. Alamar blue was added to plate 2 immediately after fresh media was added. The plates were mixed on a gyratory shaker for 5 min.
Both plates were incubated under dark conditions for 24 hours at 37° C., 5% CO2. After 24 hour incubation, the plates were read on a plate reader spectrophotometer (Spectra Max 250) at wavelengths 570 and 600 nm. and the percentage of cell survival recorded.
In general terms: The colour change of resazurin is a common sign of viable cells or microbes.

Setting [1] is: Table 4 azaporphyrins, 575 nm (Pt azaporphyrins 532 nm), 1.25 J/cm^2, read-out: In Vitro EC(50).
Setting [2] is: Table 3 porphyrins, 24 h drug incubation, 532 nm, 1.25 J/cm^2, read-out: In Vitro EC50 Light.

Like-named read-outs stand apart in the source and are kept apart here.

With `COC(=O)CCC1=C(C)C2=Cc3c(C)c(C(C)OC)c4[n]3[Ga-2]35([Cl])[n]6c(c(C)c(CCC(=O)OC)c6=CC1=[N+]23)=CC1=[N+]5C(=N4)C(C)=C1C(C)OC` (mixture of isomers) [M=Ga R1,R3=Me R2,R4=CH(OMe)CH3 R=CO2Me], under setting [1], the EC50 worked out at 1000 nM.

Take `CNC(=O)CCC1=C(C)C2=Cc3cc(C)c4[n]3[Ga-2]35([Cl])[n]6c(c(C)c(CCC(=O)NC)c6=CC1=[N+]23)=CC1=[N+]5C(=C4)C=C1C` [Example 6, Gallium Chloride Deuteroporphyrin Methylamide]: under setting [2], the EC50 was 4050 nM.

With `CCC1=C(C)C2=[N+]3C1=Cc1c(C)c(CC)c4[n]1[Ga-2]31([Cl])[n]3c(c(C)c(CCC(=O)NCCOCCO)c3=CC3=[N+]1C(=C4)C(C)=C3CCC(=O)NCCOCCO)=C2` [Example 16, Gallium Chloride Mesoporphyrin 2-ethoxyethanol amide], the EC50 under setting [2] was determined as 2900 nM.

As to `CCC1=C(C)c2nc1cc1[n-]c(cc3nc(cc4[n-]c(n2)c(C)c4CCC(=O)OC)C(CCC(=O)OC)=C3C)c(CC)c1C.[Cl-].[Ga+3]` [Example 20, Gallium Chloride 5-azamesoporphyrin IX Dimethyl Ester], the EC50 under setting [1] was found to be 400 nM.

`CCC1=C(C)C2=[N+]3C1=Cc1c(C)c(CC)c4[n]1[Al-2]31([Cl])[n]3c(c(C)c(CCC(=O)NC)c3=CC3=[N+]1C(=C4)C(C)=C3CCC(=O)NC)=C2` [Example 61, Aluminum Chloride Mesoporphyrin N-methylamide]: the EC50 under setting [2] stood at 2000 nM.

For the compound `CCC1=C(C)C2=[N+]3C1=Cc1c(C)c(CC)c4[n]1[Pt-2]31[n]3c(c(C)c(CCC(=O)NCCOC)c3=CC3=[N+]1C(=C4)C(C)=C3CCC(=O)NCCOC)=C2` (stereo not drawn) [Example 65, Platinum Mesoporphyrin di(2-methoxyethylamide)], the EC50 under setting [2] worked out at 50 nM.

As for `CCC1=C(C)c2cc3[n-]c(cc4nc(cc5[n-]c(cc1n2)c(C)c5CC)C(C)=C4CCC(=O)NCCCO)c(CCC(=O)NCCCO)c3C.[Pt+2]` [Example 67, Platinum Mesoporphyrin di(3-hydroxypropylamide)], under setting [2], the EC50 is 100 nM.

Regarding `CC1=CC2=Cc3c(C)cc4[n]3[Ga-2]35([Cl])[n]6c(c(C)c(CCC(=O)NCCCO)c6=CC6=[N+]3C(=C4)C(C)=C6CCC(=O)NCCCO)=CC1=[N+]25` [Example 68, Gallium Chloride Deuteroporphyrin di(3-hydroxypropylamide)], the EC50 under setting [2] is 3000 nM.

For `CCOP(=O)(CCCC1=C(C)c2cc3cc(C)c(cc4nc(cc5[n-]c(cc1n2)c(CCCP(=O)(OCC)OCC)c5C)C(C)=C4)[n-]3)OCC.[Cl-].[Ga+3]` [Example 80, Gallium Chloride 3,7,12,17-tetramethylporphyrin-2,18-di((3′-diethylphosphono)propyl)], the EC50 under setting [2] was found to be 2000 nM.

Regarding `CCC1=C(CC)C2=[N+]3C1=Nc1c(CC)c(CC)c4[n]1[Pt-2]31[n]3c(c(C)c(CCC(=O)OC)c3=CC3=[N+]1C(=C4)C(C)=C3CCC(=O)OC)=C2` (stereo not drawn) [Example 85, Platinum 7,8,12,13-tetraethyl-12,17-dimethyl-10-azaporphyrin-2,18-di(propionic acid methyl ester)], the EC50 under setting [1] was 4000 nM.

Consider `CCC1=C(CC)C2=[N+]3C1=Nc1c(CC)c(CC)c4[n]1[Pt-2]31[n]3c(c(C)c(CCC(=O)O)c3=CC3=[N+]1C(=C4)C(C)=C3CCC(=O)O)=C2.[K+].[K+]` (stereo not drawn) [Example 86, Platinum 7,8,12,13-tetraethyl-12,17-dimethyl-10-azaporphyrin-2,18-di(propionic acid Potassium Salt)], for which the EC50 under setting [1] was 400 nM.

In the case of `CCC1=C(CC)C2=[N+]3C1=Nc1c(CC)c(CC)c4[n]1[Ga-2]31([OH])[n]3c(c(C)c(CCC(=O)O)c3=CC3=[N+]1C(=C4)C(C)=C3CCC(=O)O)=C2.[Na+].[Na+]` [Example 88, Gallium Hydroxy 7,8,12,13-tetraethyl-12,17-dimethyl-10-azaporphyrin-2,18-di(propionic acid Sodium Salt)], the EC50 under setting [1] was 500 nM.

Regarding `CCC1=C(CC)C2=Nc3c(CC)c(CC)c4[n]3[Pt][n]3c(c(C)c(CCC(=O)NC)c3=CC3=NC(=C4)C(C)=C3CCC(=O)NC)=CC1=N2` [Example 92, Platinum 7,8,12,13-tetraethyl-12,17-dimethyl-10-azaporphyrin-2,18-di(propionic acid methyl amide)], under setting [1], the EC50 is 2300 nM.

As for `CCC1=C(CC)C2=Nc3c(CC)c(CC)c4[n]3[Al]([Cl])[n]3c(c(C)c(CCC(=O)NC)c3=CC3=NC(=C4)C(C)=C3CCC(=O)NC)=CC1=N2` [Example 93, Aluminum Chloride 7,8,12,13-tetraethyl-12,17-dimethyl-10-azaporphyrin-2,18-di(propionic acid methyl amide)], the EC50 under setting [1] was 100 nM.

On to `CCC1=C(C)C2=NC1=Nc1c(C)c(CC)c3[n]1[Ga]([Cl])[n]1c(c(C)c(CCC(=O)NC)c1=CC1=NC(=C3)C(C)=C1CCC(=O)NC)=C2` [Example 94, Gallium Chloride 5-aza-mesoporphyrin IX Dimethyl Amide], for which the EC50 under setting [1] came out at 520 nM.

As for `CCC1=C(CC)C2=Nc3c(CC)c(CC)c4[n]3[Ga]([Cl])[n]3c(c(C)c(CCC(=O)NCCOC)c3=CC3=NC(=C4)C(C)=C3CCC(=O)NCCOC)=CC1=N2` [Example 95, Gallium Chloride 7,8,12,13-tetraethyl-12,17-dimethyl-10-azaporphyrin-2,18-di(propionic acid 2′-methoxyethyl amide)], the EC50 under setting [1] worked out at 2000 nM.

For `CCC1=C(CC)C2=Nc3c(CC)c(CC)c4[n]3[Pt][n]3c(c(C)c(CCC(=O)NCCOC)c3=CC3=NC(=C4)C(C)=C3CCC(=O)NCCOC)=CC1=N2` [Example 96, Platinum 7,8,12,13-tetraethyl-12,17-dimethyl-10-azaporphyrin-2,18-di(propionic acid-2′-methoxyethyl amide)], the EC50 under setting [1] was 1900 nM.

With `CCC1=C(CC)C2=Nc3c(CC)c(CC)c4[n]3[Pt][n]3c(c(C)c(CCC(=O)NCCCO)c3=CC3=NC(=C4)C(C)=C3CCC(=O)NCCCO)=CC1=N2` [Example 98, Platinum 7,8,12,13-tetraethyl-12,17-dimethyl-10-azaporphyrin-2,18-di(propionic acid-3′-hydroxypropyl amide amide)], the EC50 under setting [1] worked out at 2000 nM.

Regarding `CCC1=C(C)c2nc1cc1[n-]c(cc3nc(cc4[n-]c(n2)c(C)c4CCC(=O)NCCCO)C(CCC(=O)NCCCO)=C3C)c(CC)c1C.[Cl-].[Ga+3]` [Example 99, Gallium Chloride 5-azamesoporphyrin IX di(3′-hydroxypropyl amide)], the EC50 under setting [1] is 500 nM.

Regarding `CCC1=C(CC)C2=Nc3c(CC)c(CC)c4[n]3[Ga]([Cl])[n]3c(c(C)c(CCC(=O)NCCOCCO)c3=CC3=NC(=C4)C(C)=C3CCC(=O)NCCOCCO)=CC1=N2` [Example 100, Gallium Chloride 7,8,12,13-tetraethyl-12,17-dimethyl-10-azaporphyrin-2,18-di(propionic acid-2-ethoxyethanol amide)], the EC50 under setting [1] was 1300 nM.

For the compound `CCC1=C(CC)C2=Nc3c(CC)c(CC)c4[n]3[Pt][n]3c(c(C)c(CCC(=O)NCCOCCO)c3=CC3=NC(=C4)C(C)=C3CCC(=O)NCCOCCO)=CC1=N2` [Example 101, Platinum 7,8,12,13-tetraethyl-12,17-dimethyl-10-azaporphyrin-2,18-di(propionic acid-2-ethoxyethanol amide)], the EC50 under setting [1] turned out to be 1500 nM.

For the compound `CCC1=C(CC)C2=Nc3c(CC)c(CC)c4[n]3[Pt][n]3c(c(C)c(CCC(=O)NCCN(C)C)c3=CC3=NC(=C4)C(C)=C3CCC(=O)NCCN(C)C)=CC1=N2` [Example 103, Platinum 7,8,12,13-tetraethyl-12,17-dimethyl-10-azaporphyrin-2,18-di(propionic acid-2′-N,N-dimethylaminoethyl amide)], the EC50 under setting [1] was 1200 nM.

Consider `CCC1=C(CC)C2=Nc3c(CC)c(CC)c4[n]3[In]([Cl])[n]3c(c(C)c(CCCO)c3=CC3=NC(=C4)C(C)=C3CCCO)=CC1=N2` [Example 104, Indium Chloride 7,8,12,13-tetraethyl-12,17-dimethyl-10-azaporphyrin-2,18-di(3′-hyroxypropyl)], for which, under setting [1], the EC50 was determined as 30 nM.

Regarding `CCC1=C(CC)C2=Nc3c(CC)c(CC)c4[n]3[Pt][n]3c(c(C)c(CCCO)c3=CC3=NC(=C4)C(C)=C3CCCO)=CC1=N2` [Example 105, Platinum 7,8,12,13-tetraethyl-12,17-dimethyl-10-azaporphyrin-2,18-di(3′-hyroxypropyl)], under setting [1], the EC50 was found to be 40 nM.

As for `CCC1=C(CC)c2nc1cc1[n-]c(cc3nc(cc4[n-]c(n2)c(CC)c4CC)C(C)=C3CCCOC)c(CCCOC)c1C.[Cl-].[Ga+3]` [Example 106, Gallium Chloride 7,8,12,13-tetraethyl-12,17-dimethyl-10-azaporphyrin-2,18-di(3′-methoxypropyl)], the EC50 under setting [1] was 1000 nM.

With `CCC1=C(C)C2=Cc3c(CC)c(C)c4[n]3[Ga-2]35([Cl])[n]6c(c(C)c(CCCOCCOC)c6=CC6=[N+]3C(=C4)C(C)=C6CCCOCCOC)=CC1=[N+]25` [M=Ga R1=Et R3=Me R4=Et R2=CH2O(CH2)2OCH3], under setting [2], the EC50 stood at 430 nM.

For the compound `CCC1=C(C)C2=Cc3c(CC)c(C)c4[n]3[Ga-2]35([Cl])[n]6c(c(C)c(CCCOCCO)c6=CC6=[N+]3C(=C4)C(C)=C6CCCOCCO)=CC1=[N+]25` [M=Ga R1=Et R3=Me R4=Et R2=CH2O(CH2)2OH], under setting [2], the EC50 worked out at 500 nM.
